Source: patent publication US8778966B2, “Quinolinone derivatives as PARP and tank inhibitors” (Janssen Pharmaceutica, NV, priority 2007, dated 2014)

Key:
Human PARP-1 enzyme = target: T1, Human PARP-1 enzyme (Homo sapiens, UniProt P09874); assay: In vitro Scintillation Proximity Assay (SPA) for PARP-1 inhibitory activity; type: biochemical; conditions: read-out: in vitro SPA assay PARP-1 pIC50 (converted)
T1 construct: purchased Trevigen
In short: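 SPA assay: nicked-DNA-activated PARP-1 (0.1–0.2 μg/ml) ADP-ribosylates biotinylated histones (2 μg/ml) using [3H]-NAD+, 20 min at RT in Tris pH 8/DTT/MgCl2, stopped with 2 mM NAD+. Blank-subtracted cpm expressed as % control; IC50 by linear interpolation, reported as pIC50 (10−5 to 3×10−9 M tested).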

PC3 cells = assay: EB1 Comet (microtubule disruption) assay; type: cell-based, human; conditions: Homo sapiens, PC-3, 1 h, 1 hour treatment, read-out: EB1 pLAC (converted)
In short: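 PC3 human prostate cancer cells exposed to compound for 1 h at 37 °C (0.6% DMSO final), methanol-fixed, immunostained for Eb1 and imaged at 20×. Value is the lowest active concentration (LAC): the concentration at which Eb1 foci are absent in at least 50% of treated cells.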

tubulin = assay: Tubulin polymerization assay; type: biochemical; parameters: key: a compound showing 0 to 50% inhibition at 20 μM is reported as score 1; Score 2 compounds are defined as compound showing more than 50% inhibition at 20 μM and less than 50% inhibition at 5 μM; a compound showing more than 50% inhibition at 5 μM is reported as score 3; conditions: tested at 20 μM and 5 μM
In short: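 Cytoskeleton kit tubulin was run in a 10 µl final volume at 37 °C, with fluorescence read every minute for 1 h. Polymerization was taken as the maximum slope (4-point linear regression) and expressed as % of no-compound control. Compounds were tested at 20 µM, then at 5 µM if inhibition exceeded 50%, and scored by % inhibition.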

T1 sequence (P09874 whole entry): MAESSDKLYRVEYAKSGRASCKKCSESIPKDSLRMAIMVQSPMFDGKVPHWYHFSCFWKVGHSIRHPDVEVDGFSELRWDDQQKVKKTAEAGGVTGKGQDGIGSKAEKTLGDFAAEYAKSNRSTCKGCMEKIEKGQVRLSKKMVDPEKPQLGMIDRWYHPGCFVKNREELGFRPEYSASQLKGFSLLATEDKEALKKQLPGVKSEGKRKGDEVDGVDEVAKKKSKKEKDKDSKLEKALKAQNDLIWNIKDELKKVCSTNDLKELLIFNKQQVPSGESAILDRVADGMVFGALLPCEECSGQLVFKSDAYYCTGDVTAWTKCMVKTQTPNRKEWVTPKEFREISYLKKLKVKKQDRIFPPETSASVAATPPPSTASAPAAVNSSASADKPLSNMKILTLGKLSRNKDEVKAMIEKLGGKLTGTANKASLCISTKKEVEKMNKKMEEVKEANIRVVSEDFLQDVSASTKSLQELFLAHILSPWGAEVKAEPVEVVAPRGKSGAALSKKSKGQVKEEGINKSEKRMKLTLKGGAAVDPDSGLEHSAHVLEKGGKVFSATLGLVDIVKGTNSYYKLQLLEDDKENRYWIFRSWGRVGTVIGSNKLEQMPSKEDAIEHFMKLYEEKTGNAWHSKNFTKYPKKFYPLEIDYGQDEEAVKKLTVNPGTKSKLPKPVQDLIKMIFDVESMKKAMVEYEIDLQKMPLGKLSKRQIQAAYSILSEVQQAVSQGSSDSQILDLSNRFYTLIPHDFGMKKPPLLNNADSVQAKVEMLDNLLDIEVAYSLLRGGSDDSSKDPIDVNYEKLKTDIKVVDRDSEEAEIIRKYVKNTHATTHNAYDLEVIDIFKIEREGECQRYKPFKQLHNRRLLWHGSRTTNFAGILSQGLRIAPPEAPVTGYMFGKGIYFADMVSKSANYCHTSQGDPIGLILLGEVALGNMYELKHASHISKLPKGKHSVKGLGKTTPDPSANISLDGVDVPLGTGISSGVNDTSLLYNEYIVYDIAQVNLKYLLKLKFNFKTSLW

| SMILES | IC50 (Human PARP-1 enzyme) [µM] | melting point [°C] | minimal effective concentration (PC3 cells) [µM] | tubulin polymerisation score (tubulin) |
| --- | --- | --- | --- | --- |
| CCc1cc2ccc(C(C)(C#N)Cc3nc(C#N)cc(OC)n3)cc2[nH]c1=O (single isomer, unassigned) [Compound 204] | 0.0398 | 180 | – | – |
| CCc1cc2ccc(C(C)(C#N)Cc3cccc(OCCCN4CCNCC4)c3)cc2[nH]c1=O (centres unmarked) [Compound 25] | 1.58 | 50 | > 10 | – |
| CCc1cc2ccc(C(C#N)(Cc3ccccc3)c3ccc(C#N)cc3)cc2[nH]c1=O (centres unmarked) [Compound 26] | 1.58 | 255 | > 10 | – |
| CCc1cc2ccc(C(C#N)(Cc3ccccc3)c3ccccc3)cc2[nH]c1=O (centres unmarked) [Compound 27] | 1 | 229 | 10 | – |
| CCc1cc2ccc(C(C#N)(Cc3ccccc3)C3CC3)cc2[nH]c1=O (centres unmarked) [Compound 29] | 0.631 | 186 | 1 | – |
| CCc1cc2ccc(C(C#N)(Cc3ccccc3)C(C)C)cc2[nH]c1=O (centres unmarked) [Compound 30] | 3.16 | 234 | 3.16 | – |
| CCCC(C#N)(Cc1ccccc1)c1ccc2cc(CC)c(=O)[nH]c2c1 (centres unmarked) [Compound 31] | 2 | 210 | 10 | – |
| CCc1cc2ccc(C(C)(C#N)Cc3cc(OC)ccc3F)cc2[nH]c1=O (centres unmarked) [Compound 171] | 0.02 | 160 | 0.1 | – |
| CCc1cc2ccc(C(C)(C#N)Cc3cccc(-c4ccc[nH]4)c3)cc2[nH]c1=O (centres unmarked) [Compound 176] | 0.0501 | 194 | 1 | – |
| CCc1cc2ccc(C(C)(C#N)Cc3cccc(CCS(C)(=O)=O)c3)cc2[nH]c1=O (centres unmarked) [Compound 178] | 0.0631 | 150 | 3.16 | – |
| CCc1cc2ccc(C(C)(C#N)Cc3cccc(/C=N/OC)c3)cc2[nH]c1=O (centres unmarked) [Compound 185] | 0.02 | 170 | 0.1 | – |
| CCc1cc2ccc(C(C)(C#N)Cc3cccc(OCCCC#N)c3)cc2[nH]c1=O (centres unmarked) [Compound 194] | 0.0251 | 148 | 1 | 2 |
| CCc1cc2ccc(C(C)(C#N)Cc3cccc(OCCC#N)c3)cc2[nH]c1=O (centres unmarked) [Compound 195] | 0.0398 | 161 | 0.0316 | 1 (a compound showing 0 to 50% inhibition at 20 μM is reported as score 1) |
| C#CCOc1cccc(CC(C)(C#N)c2ccc3cc(CC)c(=O)[nH]c3c2)c1 (centres unmarked) [Compound 196] | 0.0251 | 141 | – | 2 |
| CCc1cc2ccc(C(C)(C#N)Cc3cccc(OCCS(C)(=O)=O)c3)cc2[nH]c1=O (centres unmarked) [Compound 201] | 0.0251 | 55 | 0.562 | – |
| CCc1cc2ccc(C(C)(C#N)Cc3nc(Cl)cc(OC)n3)cc2[nH]c1=O (centres unmarked) [Compound 202] | 0.0794 | 162 | – | 2 |

Now from value to molecule, other results behind:

| IC50 (Human PARP-1 enzyme) [µM] | melting point [°C] | SMILES | minimal effective concentration (PC3 cells) [µM] | tubulin polymerisation score (tubulin) |
| --- | --- | --- | --- | --- |
| 0.0794 | 194 | CCc1cc2ccc(C(C)(C#N)Cc3nc(N(C)C)cc(N(C)C)n3)cc2[nH]c1=O (centres unmarked) [Compound 205] | 1 | – |
| 0.0501 | 154 | CCc1cc2ccc(C(C)(C#N)Cc3cccc(N4CCC(N(C)C)C4)n3)cc2[nH]c1=O (centres unmarked) [Compound 209] | 0.316 | – |
| 0.0794 | 111 | CCc1cc2ccc(C(C)(C#N)Cc3cccc(C#Cc4cncn4C)n3)cc2[nH]c1=O (centres unmarked) [Compound 217] | 1 | – |
| 0.398 | 99 | CCc1cc2ccc(C(C)(C#N)Cc3cccc(N(C)CCc4ccccc4)n3)cc2[nH]c1=O.Cl (centres unmarked) [Compound 220] | 3.16 | – |
| 0.0501 | 121 | CCc1cc2ccc(C(C)(C#N)Cc3cccc(C#N)[n+]3[O-])cc2[nH]c1=O (centres unmarked) [Compound 228] | 0.562 | – |
| 0.0631 | 180 | CCc1cc2c(OC)cc(C(C)(C#N)Cc3nc(OC)cc(OC)n3)cc2[nH]c1=O (centres unmarked) [Compound 229] | 3.16 | – |
| 0.0501 | 209 | CCc1cc2ccc(C(C)(C#N)CN3CCN(c4ccccn4)CC3)cc2[nH]c1=O (centres unmarked) [Compound 233] | 1 | 1 (a compound showing 0 to 50% inhibition at 20 μM is reported as score 1) |
| 0.0251 | 210 to 211 | CCc1cc2ccc(C(C)(C#N)Cc3cccc4c3CCN4)cc2[nH]c1=O (centres unmarked) [Compound 237] | 3.16 | – |
| 0.0794 | – | CCc1cc2ccc(C(C)(C#N)Cc3nc(C#N)cc(N(C)C)n3)cc2[nH]c1=O (centres unmarked) [Compound 318] | 0.316 | 1 (a compound showing 0 to 50% inhibition at 20 μM is reported as score 1) |
| 0.2 | – | CCc1cc2ccc(C(C)(C#N)Cc3cc(C#N)nc(C)n3)cc2[nH]c1=O (centres unmarked) [Compound 319] | 1 | 2 |
| 0.0398 | – | CCc1cc2ccc(C(C)(C#N)Cc3cc(OC)nc(OC)c3)cc2[nH]c1=O (centres unmarked) [Compound 350] | 1 | 2 |
| 0.158 | – | CCc1cc2ccc(C(C)(C#N)CN3CCC(c4ccccc4)CC3)cc2[nH]c1=O (centres unmarked) [Compound 375] | 0.316 | 1 (a compound showing 0 to 50% inhibition at 20 μM is reported as score 1) |
| 0.0501 | – | CCc1cc2ccc(C(C)(C#N)CN3CCN(c4ccc(C#N)cn4)CC3)cc2[nH]c1=O (centres unmarked) [Compound 377] | 1 | 1 (a compound showing 0 to 50% inhibition at 20 μM is reported as score 1) |
